pIC50: −log10 of the molar value. Structures can show the parent of a compound that is named as a salt.
system: not given; experiment: not given; conditions: not given

| melting point | SMILES |
| --- | --- |
| 172 °C | CNC(=O)c1ccc2c(c1)NC(=O)/C2=C(\Nc1ccc(CN2CCN(C)CC2)cc1)c1ccc2c(c1)OCCO2 [Example 10.0, 6-methylaminocarbonyl-3-(Z)-{1-[4-(1-methylpiperazin-4-yl-methyl)-phenylamino]-1-(3,4-ethylenedioxyphenyl)-methylene}-2-indolinone] |
| 274 to 276 °C | CN(C)CC(=O)N(C)c1ccc(N/C(=C2\C(=O)Nc3cc(Cl)ccc32)c2ccncc2)cc1 [Example 3.0, 6-Chloro-3-(Z)-[1-(4-{N-(dimethylaminomethylcarbonyl)-N-methyl-amino}-phenyl-amino)-1-(4-pyridyl)-methylene]-2-indolinone] |
| 204 to 205 °C | CCC(=O)N(CCCN(C)C)c1ccc(N/C(=C2\C(=O)Nc3ccccc32)c2coc(N(Cc3ccccc3)Cc3ccccc3)n2)cc1 [Example 1.0, 3-(Z)-[1-{4-[N-propionyl-N-(3-dimethylamino-propyl)-amino]-phenylamino}-1-(2-dibenzylamino-4-oxazolyl)-methylene]-2-indolinone] |
| 248 to 250 °C | CCNCc1ccc(N/C(=C2\C(=O)Nc3cc(Cl)ccc32)c2ccc3c(c2)OCO3)cc1 (as salt: salt) [Example 8.0, 6-chloro-3-(Z)-{1-[4-(ethylaminomethyl)-phenylamino]-1-(3,4-methylenedioxyphenyl)-methylene}-2-indolinone] |
| 198 to 199 °C | CN(C)CC(=O)N(C)c1ccc(N/C(=C2\C(=O)Nc3ccccc32)c2cnccn2)cc1 [Example 2.0, 3-(Z)-{1-[4-(N-dimethylaminomethylcarbonyl-N-methyl-amino)-phenylamino]-1-(2-pyrazinyl)-methylene}-2-indolinone] |
| 226 to 228 °C | CCNCc1ccc(N/C(=C2\C(=O)Nc3cc(F)ccc32)c2ccc3c(c2)ncn3C)cc1 (as salt: salt) [Example 11, 6-fluoro-3-(Z)-{1-[4-(ethylaminomethyl)-phenylamino]-1-(1-methylbenzimidazol-5-yl)-methylene}-2-indolinone] |

system: Human umbilical endothelial cells (HUVEC); experiment: Inhibition of VEGF165-stimulated HUVEC proliferation (3H-thymidine incorporation); format: cell-based; conditions: HUVEC proliferation stimulated with 5 ng/ml VEGF165 and 10 μg/ml heparin; 76 h incubation + 16 h 3H-thymidine
Description: Human umbilical endothelial cells (HUVEC) were cultivated in IMDM (Gibco BRL), supplemented with 10% foetal calf serum (FBS) (Sigma), 50 μM of β-mercaptoethanol (Fluka), standard antibiotics, 15 μg/ml of endothelial cell growth factor (ECGS, Collaborative Biomedical Products) and 100 μg/ml of heparin (Sigma) on gelatine-coated culture dishes (0.2% gelatine, Sigma) at 37° C., under 5% CO2 in a water-saturated atmosphere.
In order to investigate the inhibitory activity of the compounds according to the invention the cells were “starved” for 16 hours, i.e. kept in culture medium without growth factors (ECGS+heparin). The cells were detached from the culture dishes using trypsin/EDTA and washed once in serum-containing medium. Then they were seeded out in amounts of 2.5×10^3 cells per well.
The proliferation of the cells was stimulated with 5 ng/ml of VEGF165 (vascular endothelial growth factor; H. Weich, GBF Braunschweig) and 10 μg/ml of heparin. As a control, 6 wells in each dish were not stimulated.
The compounds according to the invention were dissolved in 100% dimethylsulphoxide and added to the cultures in various dilutions as triple measurements, the maximum dimethylsulphoxide concentration being 0.3%.
The cells were incubated for 76 hours at 37° C., then for a further 16 hours ^3H-thymidine (0.1 μCi/well, Amersham) was added in order to determine the DNA synthesis. Then the radioactively labelled cells were immobilised on filter mats and the radioactivity incorporated was measured in a β-counter. In order to determine the inhibitory activity of the compounds according to the invention the mean value of the non-stimulated cells was subtracted from the mean value of the factor-stimulated cells (in the presence or absence of the compounds according to the invention).
The relative cell proliferation was calculated as a percentage of the control (HUVEC without inhibitor) and the concentration of active substance which inhibits the proliferation of the cells by 50% (IC50) was determined.

| SMILES | pIC50 |
| --- | --- |
| COc1cc(N/C(=C2\C(=O)Nc3cc(Cl)ccc32)c2ccc3c(c2)OCCO3)ccc1N(C)C(=O)CN(C)C [(bb), 6-chloro-3-(Z)-{1-[4-(N-dimethylaminomethylcarbonyl-N-methyl-amino)-3-methoxy-phenylamino]-1-(1,2-ethylenedioxyphen-4-yl)-methylene}-2-indolinone] | 7.48 |

same assay, conditions: Homo sapiens; HUVEC proliferation stimulated with 5 ng/ml VEGF165 and 10 μg/ml heparin; 76 h incubation + 16 h 3H-thymidine

| SMILES | pIC50 |
| --- | --- |
| CN(C)Cc1ccc(N/C(=C2\C(=O)Nc3cc(Cl)ccc32)c2ccc3c(c2)OCCO3)cc1 [(g), 3-(Z)-{1-[4-(dimethylaminomethyl)-phenylamino]-1-(3,4-ethylenedioxyphenyl)-methylene}-6-chloro-2-indolinone] | 8.05 |
| CN(C)CC(=O)N(C)c1ccc(N/C(=C2\C(=O)Nc3ccccc32)c2ccoc2)cc1 [(an), 3-(Z)-{1-(4-[N-methyl-N-(dimethylaminomethylcarbonyl)-amino]-phenylamino)-1-(3-furyl)-methylene}-2-indolinone] | 7.24 |
| Cn1ccnc1-c1ccc(N/C(=C2\C(=O)Nc3cc(Cl)ccc32)c2ccc3nccnc3c2)cc1 [(ar), 3-(Z)-{1-(4-[1-methylimidazol-2-yl]-phenylamino)-1-(quinoxalin-6-yl)-methylene}-6-chloro-2-indolinone] | 7.15 |
| CC(=O)N(CCCN(C)C)c1ccc(N/C(=C2\C(=O)Nc3cc(Cl)ccc32)c2ccc3c(c2)OCCO3)cc1 [(m), 3-(Z)-{1-(4-[N-acetyl-N-(3-dimethylaminopropyl)-amino]-phenylamino)-1-(3,4-ethylenedioxyphenyl)-methylene}-6-chloro-2-indolinone] | 9.52 |
| COC(=O)c1ccc2c(c1)NC(=O)/C2=C(\Nc1ccc(N(C)C(=O)CN2CCN(C)CC2)cc1)c1ccc2c(c1)OCCO2 [(j), 3-(Z)-{1-(4-[N-methyl-N-(4-methylpiperazin-1-yl-methylcarbonyl)-amino]-phenyl-amino)-1-(3,4-ethylenedioxyphenyl)-methylene}-6-methoxycarbonyl-2-indolinone] | 9.70 |
| COC(=O)c1ccc2c(c1)NC(=O)/C2=C(\Nc1ccc(C(=O)N(C)CCN(C)C)cc1)c1ccc2c(c1)OCCO2 [(ad), 3-(Z)-{1-(4-[N-methyl-N-(2-dimethylaminoethyl)aminocarbonyl]-phenylamino)-1-(3,4-ethylenedioxyphenyl)-methylene}-6-methoxycarbonyl-2-indolinone] | 9.40 |
| COC(=O)c1ccc2c(c1)NC(=O)/C2=C(\Nc1ccc(N(C)C(=O)CN(C)C)cc1)c1ccc2c(c1)OCCO2 [(t), 3-(Z)-{1-(4-[N-methyl-N-(dimethylaminomethylcarbonyl)-amino]-phenylamino)-1-(3,4-ethylenedioxyphenyl)-methylene}-6-methoxycarbonyl-2-indolinone] | 9.22 |
| CCN(CC)Cc1ccc(N/C(=C2\C(=O)Nc3cc(C(=O)OC)ccc32)c2ccc3c(c2)OCO3)cc1 [(x), 3-(Z)-{1-(4-[diethylamino-methyl]-phenylamino)-1-(3,4-methylenedioxyphenyl)-methylene}-6-methoxycarbonyl-2-indolinone] | 9.00 |
| CCC(=O)N(CCN(C)C)c1ccc(N/C(=C2\C(=O)Nc3cc(Cl)ccc32)c2ccc3c(c2)OCCO3)cc1 [(o), 3-(Z)-{1-(4-[N-propionyl-N-(2-dimethylaminoethyl)-amino]-phenylamino)-1-(3,4-ethylenedioxyphenyl)-methylene}-6-chloro-2-indolinone] | 9.00 |
| CN(C)CCN(C(=O)c1cccnc1)c1ccc(N/C(=C2\C(=O)Nc3cc(Cl)ccc32)c2ccc3c(c2)OCO3)cc1 [(ao), 3-(Z)-{1-(4-[N-(3-pyridylcarbonyl)-N-(2-dimethylaminoethyl)-amino]-phenyl-amino)-1-(3,4-methylenedioxyphenyl)-methylene}-6-chloro-2-indolinone] | 8.22 |
| COC(=O)c1ccc2c(c1)NC(=O)/C2=C(\Nc1ccc(CN2CCCC2)cc1)c1ccc2c(c1)OCCO2 [(s), 3-(Z)-{1-(4-[pyrrolidin-1-yl-methyl]-phenylamino)-1-(3,4-ethylenedioxyphenyl)-methylene}-6-methoxycarbonyl-2-indolinone] | 9.22 |
| Cc1cc(C)n(-c2ccc(N/C(=C3\C(=O)Nc4cc(F)ccc43)c3ccc4c(c3)ncn4C)cc2)n1 [(at), 3-(Z)-{1-[4-(3,5-dimethyl-pyrazol-1-yl)-phenylamino]-1-(1-methyl-benzimidazol-5-yl)-methylene}-6-fluoro-2-indolinone] | 7.52 |
| COC(=O)c1ccc2c(c1)NC(=O)/C2=C(\Nc1ccc(CN(C)C)cc1)c1ccc2c(c1)OCO2 [(w), 3-(Z)-{1-(4-[dimethylamino-methyl]-phenylamino)-1-(3,4-methylenedioxyphenyl)-methylene}-6-methoxycarbonyl-2-indolinone] | 9.30 |
| CN(C)C(=O)c1ccc(N/C(=C2\C(=O)Nc3cc(F)ccc32)c2ccc3c(c2)ncn3C)cc1 [(y), 3-(Z)-{1-[4-(dimethylaminocarbonyl)-phenylamino]-1-(1-methyl-benzimidazol-5-yl)-methylene}-6-fluoro-2-indolinone] | 7.85 |
| CN1CCN(Cc2ccc(N/C(=C3\C(=O)Nc4cc(C(=O)N(C)C)ccc43)c3ccc4c(c3)OCCO4)cc2)CC1 [(ah), 3-(Z)-{1-(4-[1-methyl-piperazin-4-yl-methyl]-phenylamino)-1-(3,4-ethylenedioxy-phenyl)-methylene}-6-dimethylaminocarbonyl-2-indolinone] | 7.00 |
| COC(=O)c1ccc2c(c1)NC(=O)/C2=C(\Nc1ccc(N(CCN(C)C)C(C)=O)cc1)c1ccc2c(c1)OCCO2 [(ac), 3-(Z)-{1-(4-[N-acetyl-N-(2-dimethylaminoethyl)-amino]-phenylamino)-1-(3,4-ethylenedioxyphenyl)-methylene}-6-methoxycarbonyl-2-indolinone] | 9.70 |
| COC(=O)c1ccc2c(c1)NC(=O)/C2=C(\Nc1ccc(C(=O)N(C)CCN(C)C)cc1)c1ccc2c(c1)OCO2 [(af), 3-(Z)-{1-(4-[N-methyl-N-(2-dimethylaminoethyl)aminocarbonyl]-phenylamino)-1-(3,4-methylenedioxyphenyl)-methylene}-6-methoxycarbonyl-2-indolinone] | 9.30 |
| CN1CCN(Cc2ccc(N/C(=C3\C(=O)Nc4cc(Cl)ccc43)c3ccc4c(c3)OCO4)cc2)CC1 [(q), 3-(Z)-{1-(4-[4-methylpiperazin-1-yl-methyl]-phenylamino)-1-(3,4-methylenedioxy-phenyl)-methylene}-6-chloro-2-indolinone] | 8.70 |
| COC(=O)c1ccc2c(c1)NC(=O)/C2=C(\Nc1ccc(CN(C)C)cc1)c1ccc2c(c1)OCCO2 [(i), 3-(Z)-{1-[4-(dimethylaminomethyl)-phenylamino]-1-(3,4-ethylenedioxyphenyl)-methylene}-6-methoxycarbonyl-2-indolinone] | 9.30 |

Reference: US7148249B2, “Indolinones substituted by heterocycles, the preparation thereof and their use as medicaments” (Boehringer Ingelheim Pharma GmbH & Co. KG, priority 2002, dated 2006)
